≈ marks a conversion by molar mass, not a printed value.
Legend:
E. coli (2) = assay: Susceptibility testing (MIC, CLSI microdilution); format: cell-based, Escherichia coli; settings: 20 h at 35° C., in µg/mL (unit assumed)
Protocol: (§1) Compounds were tested following the microdilution method of CLSI (Clinical and Laboratory Standards Institute. Methods for dilution antimicrobial susceptibility tests for bacteria that grow aerobically; Approved standard—sixth edition. CLSI document M7-A5, CLSI, Wayne, Pa. 2003). Assays were performed in sterile plastic 96-well microtiter trays with round bottom wells (Greiner).
(§2) Stock solutions of test compounds and control antibiotics were prepared at 10 mg/ml in DMSO. Serial 2-fold dilutions of each drug were performed in a microtiter plate across each row using DMSO as solvent at 100-fold the desired final concentration. Wells in columns #1-11 contain drug and column #12 was kept as a growth control for the organism with no drug. Each well in the mother plate was diluted with sterile deionized water and DMSO, mixed, and volumes of 10 μl distributed to each well in the resulting assay plates.
(§3) Stock cultures were prepared using the Microbank™ method (Pro-Lab Diagnostics) and stored at −80° C. To propagate each strain, one bead was removed from the frozen vial and aseptically streaked onto Trypticase Soy Agar (Difco) which were incubated at 35° C. Standardized inocula were prepared using the direct colony suspension method according to CLSI guidelines (Clinical and Laboratory Standards Institute. Methods for dilution antimicrobial susceptibility tests for bacteria that grow aerobically; Approved standard—sixth edition. CLSI document M7-A5, CLSI, Wayne, Pa., 2003). Isolated colonies were selected from an 18-24 hr agar plate and resuspended in 0.9% sterile saline to match a 0.5 McFarland turbidity standard using a calorimeter (Vitek) at 80% of transmitance. The suspension was used within 15 minutes of preparation.
(§4) Mueller-Hinton Broth (MHB) (Difco) was prepared at a 1.1× concentration and supplemented with Ca++ and Mg++ as recommended by CLSI. For each organism, the standardized suspension was diluted 1:180 into appropriate growth medium in a sterile reservoir. After mixing, wells in the drug-containing assay plates were inoculated with a volume of 90 μl. Thus, for each minimum inhibitory concentration (MIC) determination, each well contains a final volume of 100 μl with an inoculum size of approximately 5×10^5 colony forming units (cfu)/ml and no more than 1% DMSO.
(§5) The completed microtiter plates were incubated 20 h at 35° C. in ambient air. Optical density of each well was determined at 600 nm using a VersaMax Microplate reader (Molecular Devices, Sunnyvale, Calif.). The MIC was defined as the lowest drug concentration causing complete suppression of visible bacterial growth.

E. coli tolC = assay: Susceptibility testing (MIC, CLSI microdilution); format: cell-based, Escherichia coli; settings: 20 h at 35° C., unit assumed
Protocol: as §1, §2, §3, §4, §5

P. ae LpxC enzyme = P. ae LpxC enzyme (Pseudomonas aeruginosa, UniProt P47205); assay: Enzyme inhibition testing (fluorescamine assay); format: biochemical; settings: read-out: ENZYME (percent inhibition); for inhibition at 0.5 µg/mL: @0.5 μg/ml; for inhibition at 0.1 µg/mL: @0.1 μg/ml
Sequence of P. ae LpxC enzyme (P47205 whole entry): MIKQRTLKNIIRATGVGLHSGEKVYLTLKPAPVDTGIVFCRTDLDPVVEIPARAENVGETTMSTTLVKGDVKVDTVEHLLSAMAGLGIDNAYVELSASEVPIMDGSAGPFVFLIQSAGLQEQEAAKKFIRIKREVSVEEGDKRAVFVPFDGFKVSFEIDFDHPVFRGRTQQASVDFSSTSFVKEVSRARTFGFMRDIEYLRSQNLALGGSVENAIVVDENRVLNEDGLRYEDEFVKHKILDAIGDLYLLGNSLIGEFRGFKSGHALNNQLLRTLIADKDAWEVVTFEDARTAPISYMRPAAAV
Protocol: Compounds were tested based on a published method (Wang W., 2001, Anal Biochem, 290, 338-46) with modifications. Enzyme assays were performed in the assay buffer (50 mM HEPES, pH8, 0.005% Brij, 50 μM ZnSO4, 1 mg/ml BSA) in 96-well V-bottom microtiter plates.
Stock solutions of test compounds and control antibiotics are prepared at 10 mg/ml in DMSO and are diluted in the assay buffer to 6-fold the final testing concentration. 5 μl compound dilution is distributed to the well of the assay plate. EDTA is used as positive control and the final concentration in assay is 12.5 mM.
P. ae LpxC enzyme dilution in the assay buffer is added to the compound in plate and pre-incubated with the compound at room temperature for 10 min. LpxC substrate is added to initiate the enzyme reaction and the final enzyme and substrate concentrations are 1.2 μM and 0.4 mM, respectively. The reaction continues at RT for 4 hrs before diluted with 45 μl of Borate buffer (0.4 M, pH9), followed by addition of 40 μl derivatization reagent (fluorescamine 2 mg/ml DMF). This mixture is incubated at RT for 10 min followed by addition of 150 μl DMF/H2O (1:1). The resulting solution is loaded onto Millipore filter unit (Microcon 10 k MWCO) and spun at 13 k rpm on bench top centrifuge for 15 min. 100 μl of this filtrate is transferred to a low fluorescence clear-bottom 96-well plate (Corning) and the fluorescence is detected at ex360 nm and em465 nm on a Tecan fluorescence plate reader. The percent inhibition is calculated based on EDTA produces 100% inhibition and negative control produces 100% activity.

P. aerug. (2) = assay: Susceptibility testing (MIC, CLSI microdilution); format: cell-based, Pseudomonas aeruginosa; settings: 20 h at 35° C., in µg/mL (unit assumed)
Protocol: as §1, §2, §3, §4, §5

P. aerug. Hypersuc = assay: Susceptibility testing (MIC, CLSI microdilution); format: cell-based, Pseudomonas aeruginosa; settings: 20 h at 35° C., Δ efflux, hypersusceptible strain, unit assumed
Protocol: as §1, §2, §3, §4, §5

K. pneu. = assay: Susceptibility testing (MIC, CLSI microdilution); format: cell-based, Klebsiella pneumoniae; settings: 20 h at 35° C., unit assumed
Protocol: as §1, §2, §3, §4, §5

H. influen. = assay: Susceptibility testing (MIC, CLSI microdilution); format: cell-based, Haemophilus influenzae; settings: 20 h at 35° C., unit assumed
Protocol: as §1, §2, §3, §4, §5

SMILES	MIC E. coli (2) (E. coli (2))	MIC E. coli tolC (E. coli tolC) [µg/mL]	inhibition at 0.5 µg/mL (P. ae LpxC enzyme) [%]	MIC P. aerug. (2) (P. aerug. (2))	MIC P. aerug. Hypersuc (P. aerug. Hypersuc) [µg/mL]	MIC K. pneu. (K. pneu.) [µg/mL]	MIC H. influen. (H. influen.) [µg/mL]	inhibition at 0.1 µg/mL (P. ae LpxC enzyme) [%]
CCCc1ccc(-c2ccc(C(=O)N3CC[S+]([O-])[C@H]3C(=O)NO)cc2)cc1 (stereo partly drawn) [Compound 14, (S)-N-Hydroxy-3-(4′-propylbiphenylcarbonyl)thiazolidine-sulfoxide-2-carboxamide]	>64	16 (≈ 41.4 µM)	99	32	8 (≈ 20.7 µM)	64 (≈ 166 µM)	> 64	–
CCCc1ccc(-c2ccc(C(=O)N3CCS(=O)(=O)[C@H]3C(=O)NO)cc2)cc1 [Compound 15, (S)-N-Hydroxy-3-(4′-propylbiphenylcarbonyl)thiazolidine-sulfone-2-carboxamide]	16	2 (≈ 4.97 µM)	–	8	2 (≈ 4.97 µM)	4 (≈ 9.94 µM)	32 (≈ 79.5 µM)	41
CCCc1ccc(-c2ccc(C(=O)N3CSC[C@H]3C(=O)NO)cc2)cc1 [Compound 16]	>64	16 (≈ 43.2 µM)	57	>64	16 (≈ 43.2 µM)	> 64	> 64	–
CCCc1ccc(-c2ccc(C(=O)N3CCS[C@@H]3C(=O)NO)cc2)cc1 [Compound 18, (R)-N-Hydroxy-3-(4′-propylbiphenylcarbonyl)thiazolidine-2-carboxamide]	>64	16 (≈ 43.2 µM)	50	>64	32 (≈ 86.4 µM)	32 (≈ 86.4 µM)	64 (≈ 173 µM)	–
CCCc1ccc(-c2ccc(C(=O)N3CCS(=O)(=O)[C@@H]3C(=O)NO)cc2)cc1 [Compound 19, (R)-N-Hydroxy-3-(4′-propylbiphenylcarbonyl)thiazolidine-sulfone-2-carboxamide]	8-16	2 (≈ 4.97 µM)	–	8	2 (≈ 4.97 µM)	4 (≈ 9.94 µM)	32 (≈ 79.5 µM)	10
CCCc1ccc(-c2ccc(C(=O)N[C@@H](CCSC)C(=O)NO)cc2)cc1 [Compound 26, (S)-N-(1-(Hydroxyamino)-4-(methylthio)-1-oxobutan-2-yl)-4′-propylbiphenyl-4-carboxamide]	>64	> 64	72	>64	> 64	> 64	> 64	–
CCCc1ccc(-c2ccc(C(=O)N[C@@H](CCS(C)(=O)=O)C(=O)NO)cc2)cc1 [Compound 27, (S)-N-(1-(Hydroxyamino)-4-(methylsulfone)-1-oxobutan-2-yl)-4′-propylbiphenyl-4-carboxamide]	>64	> 64	–	>64	> 64	> 64	> 64	38
CCCc1ccc(-c2ccc(C(=O)NC(C(=O)NO)c3cccs3)cc2)cc1 (stereo not drawn) [Compound 30, N-(2-(Hydroxyamino)-2-oxo-1-(thiophen-2-yl)ethyl)-4′-propylbiphenyl-4-carboxamide]	64	2 (≈ 5.07 µM)	87	>64	32 (≈ 81.1 µM)	8 (≈ 20.3 µM)	16 (≈ 40.6 µM)	–
CCCc1ccc(-c2ccc(C(=O)N[C@@H](Cn3cccn3)C(=O)NO)cc2)cc1 [Compound 31]	>64	1 (≈ 2.55 µM)	100	>64	64 (≈ 163 µM)	> 64	> 64	–
